Test results reported in patent US20250304623A1, “PEPTIDES FOR INTRACELLULAR DELIVERY” (UNIVERSIDADE DE SANTIAGO DE COMPOSTELA, priority 2022, published 2025).
Starred links: 1 amine or outer side, 2 acyl side, 3 side chain; linkers in the order of their positions; H or OH if unused. Residues, ends and D or L forms follow the SMILES beside them. Groups on a side chain read outwards from the residue. *: point of attachment. Glutaryl = O=C(CCCC(=O)[*:2])[*:1]; X1 = CCCC/C=C\CCCCCCCC=NN*; NHNH2 = NN*

Tests used:
[1] = MTS cell viability of transfected cells, A549; format: cell-based; conditions: human; A549 cells transfected with Cas9-RNP complexes; myristoleyl, palmitoleyl or petroselinyl aldehydes
Description: For Cas9-RNP delivery, the efficiency on GFP silencing was around 60-70% when complexing the protein with an amphiphile comprising 7.3(Leu-His) and myristoleyl, palmitoleyl or petroselinyl aldehydes. Cells transfected with the above-indicated complexes present a cell viability higher than 80%. Viability assays were performed employing the CellTiter 96© Aqueous Non-Radioactive Cell Proliferation Assay (MTS) and following the manufacturer's instructions. Briefly, 20 μL of the combined MTS/PMS solution were added into each well of the 96-well assay plate containing cells in culture medium (100 μL). The plate was incubated 4 hours at 37° C. and 5% CO2 in a humidified atmosphere. Then, absorbance (490 nm) was recorded in an INFINITE M1000 PRO (TECAN).

[2] = tested on: HeLa-EGFP cells; experiment: Cas9 ribonucleoprotein delivery, flow cytometry of EGFP negative cells; format: cell-based
Description: FIG. 2 Percentage of editing (in bars, left axis) in HeLa-EGFP cells incubated with Cas9 ribonucleoprotein with an EGFP-targeting gRNA using the amphiphiles comprising 7.3(Leu-His) peptide with myristoleyl, palmitoleyl or petroselinyl aldehydes. After 3 days, EGFP negative cells (bars; left axis) and cell concentration (dots; right axis) were quantified by flow cytometry. ([Cas9]=50 nM, amphiphiles concentration in μM).
The inventors evaluated the intracellular delivery of Cas9 ribonucleoprotein with a gRNA targeting EGFP into HeLa-EGFP cells, using an amphiphilic molecule comprising peptide 7.3(Leu-His) combined with myristoleyl, palmitoleyl or petroselinyl aldehydes. After 3 days, EGFP negative cells were quantified by flow cytometry.

[3] = tested on: chicken embryo fibroblasts (CEF); experiment: EGFP pDNA transfection in primary chicken embryo fibroblasts; format: cell-based
Excerpt: FIG. 5 EGFP pDNA transfection efficacy (% GFP-positive cells) with amphiphile comprising 7.3(Leu-His) peptide and myristoleyl aldehyde (7.3(L-H) M) at different concentrations, compared with Lipofectamine 2000 (LF) and TransIT-LT1 Transfection Reagent (Mirus) in CEF (chicken embryo fibroblasts).
The amphiphile obtained by combining the peptide 7.3(Leu-His) with myristoleyl aldehyde (7.3(Leu-His) M) was used to deliver EGFP pDNA in primary chicken embryo fibroblasts (CEF, obtained from 9-10 day-old chicken embryos), which are non-immortal cells difficult to transfect. The transfection efficiency of amphiphile 7.3(Leu-His) M was compared to that of Lipofectamine® 2000 (LF) and TransIT-LT1 Transfection Reagent (Mirus).

[4] = tested on: mice; experiment: In vivo FLuc mRNA delivery, i.v. injection, predilution formulation, BLI; conditions: i.v. tail vein, organs after 24 h
Description: FIG. 10A In vivo mRNA transfection. Representative bioluminescence images of animals and extracted organs following i.v. (intravenous) injection of FLuc mRNA/amphiphile complexes (0, 2.5 and 5 μM of 7.3(Leu-His) M) at different times (1 h, 4 h, 7 h and 24 h). 1.3 μg FLuc mRNA were used in all conditions. FIG. 10B Quantification of the organs' bioluminescence
In the case of i.v. administration (tail vein), luciferase expression was evaluated over 24 h, starting at 1 h after the administration of mRNA complexes. After that time, the specimens were sacrificed, and each organ was analysed individually using BLI for quantification of the expression. In this case, preferred conditions involved the injection of 50 μL of complex solution in a suitable buffer, such as PBS, or phosphate buffer enriched with inorganic salts, comprising 2.5 μM 7.3(Leu-His) M and 1.3 μg/mouse FLuc mRNA.

[5] = tested on: mice; experiment: In vivo FLuc mRNA delivery, i.v. injection, concentrated formulation, BLI; conditions: 125 μM
Description: Amphiphile stock solutions were prepared in DMSO as described above, but in this case, the amphiphile was contacted directly with the solution of nucleic acid cargo in a suitable buffer, such as PBS, or phosphate buffer enriched with inorganic salts, without any predilution step of the amphiphile's DMSO solution in a suitable aqueous buffer. Delivery efficiency of mRNA by i.v. administration route was determined by bioluminescence imaging (BLI). […] Luciferase expression was evaluated over 24 h, starting at 1 h after the administration of mRNA complexes. After that time, mice were sacrificed, and each organ was analysed individually using bioluminescence imaging (BLI) for quantification of the expression. […] Transfection results with the optimal volume ratios (125 or 250 μM final amphiphile concentration) and expression quantification in organs for candidates 7.2 DO, 7.2 M, 9.2 DO and 9.2 M are presented in FIGS. 12A, 12B, 11A, 11B, 13A, 13B, 20A and 20B respectively.
FIGS. 19A and 19B show in vivo transfection experiments in mice using amphiphiles comprising peptide 13.2 with oleyl aldehyde (13.2 O). These figures show representative bioluminescence images of mice and the extracted organs following i.v. (intravenous) injection of FLuc mRNA/amphiphile 13.2 O complexes (125 and 250 μM of 13.2 O were used, as indicated) at different times (1 h, 4 h, 7 h and 24 h). […]

[6] = tested on: all the cell lines except for HepG2
[7] = tested on: HepG2

concentration of cells relative to Lipofectamine ([2]; after 3 days, myristoleyl or palmitoleyl aldehydes, on average) | Compound | viability [1] | % of editing (EGFP negative cells) ([2]; Cas9 50 nM, flow cytometry after 3 days, amphiphile tails myristoleyl or palmitoleyl) | transfection efficiency relative to Lipofectamine 2000 (LF) [3] | transfection efficiency relative to TransIT-LT1 Transfection Reagent (Mirus) [3] | biodistribution of bioluminescence [4] | effect of DMSO:aqueous volume ratio on bioluminescence ([5]; ratios 1:100, 1:200, 1:400) | biodistribution of bioluminescence ([5]; concentrated formulation, 5 μg mRNA/mouse) | IC50 [6] | IC50 [7]
three times higher | CC(=O)N[C@@H](CCCNC(=N)N)C(=O)N[C@@H](CCCCNC(=O)CCCC(=O)NN)C(=O)N[C@@H](Cc1c[nH]cn1)C(=O)N[C@@H](CCCNC(=N)N)C(=O)N[C@@H](CCCCNC(=O)CCCC(=O)NN)C(=O)N[C@@H](CCCCNC(=O)CCCC(=O)NN)C(=O)N[C@@H](Cc1c[nH]cn1)C(N)=O [7.3(L-H), Ac-RK*HRK*K*H-NH2] (Ac-RK([Glutaryl-NHNH2])HRK([Glutaryl-NHNH2])K([Glutaryl-NHNH2])H-NH2) | > 80% | 70% | – | – | – | – | – | – | –
– | CCCC/C=C\CCCCCCCC=NNC(=O)CCCC(=O)NCCCC[C@H](NC(=O)[C@H](CCCCNC(=O)CCCC(=O)NN=CCCCCCCC/C=C\CCCC)NC(=O)[C@H](CCCNC(=N)N)NC(=O)[C@H](Cc1c[nH]cn1)NC(=O)[C@H](CCCCNC(=O)CCCC(=O)NN=CCCCCCCC/C=C\CCCC)NC(=O)[C@H](CCCNC(=N)N)NC(C)=O)C(=O)N[C@@H](Cc1c[nH]cn1)C(N)=O [7.3(Leu-His) M] (Ac-RK([Glutaryl-X1])HRK([Glutaryl-X1])K([Glutaryl-X1])H-NH2) | – | – | two times better | up to five times better | a preferred spleen biodistribution of the bioluminiscence was observed, followed by liver expression and, to a lesser extent, in the lungs | 1:100 (DMSO:aqueous) ratios showed the highest bioluminescence values, with up to one order of magnitude luminescence enhancement as compared to 1:200 ratio | a preferred spleen biodistribution of the bioluminescence was observed | 13 to 24 µM | ~60 µM
